For assay [1], the system named is A98G-RTV (HIV reverse transcriptase A98G). An excerpt:
(§1) The resistance test vectors containing a functional luciferase gene cassette were constructed and host cells were transfected with the resistance test vector DNA. The resistant test vectors contained patient-derived reverse transcriptase and protease sequences that were either susceptible or resistant to the antiretroviral agents, such as nucleoside reverse transcriptase inhibitors, non-nucleoside reverse transcriptase inhibitors and protease inhibitors. The resistance test vector viral particles produced by transfecting the resistance test vector DNA into host cells, either in the presence or absence of protease inhibitors, were used to infect target host cells grown either in the absence of NRTI or NNRTI or in the presence of increasing concentrations of the drug. The amount of luciferase activity produced in infected target host cells in the presence of drug was compared to the amount of luciferase produced in infected target host cells in the absence of drug. Drug resistance was measured as the amount of drug required to inhibit by 50% the luciferase activity detected in the absence of drug (inhibitory concentration 50%, IC50). The IC50 values were determined by plotting percent drug inhibition vs. log10 drug concentration.
(§2) Host cells were seeded in 10-cm-diameter dishes and were transfected several days after plating with resistance test vector plasmid DNA and the envelope expression vector. Transfections were performed using a calcium-phosphate precipitation procedure. The cell culture media containing the DNA precipitate was replaced with fresh medium, from one to 24 hours, after transfection. Cell culture media containing resistance test vector viral particles was harvested one to four days after transfection and was passed through a […] filter before being stored at −80° C. HIV capsid protein (p24) levels in the harvested cell culture media were determined by an EIA method as described by the manufacturer (SIAC; Frederick, Md.). Before infection, target cells (293 and 293/T) were plated in cell culture media. Control infections were performed using cell culture media from mock transfections (no DNA) or transfections containing the resistance test vector plasmid DNA without the envelope expression plasmid. One to three or more days after infection the media was removed and cell lysis buffer (Promega) was added to each well. […] The inhibitory effect of the drug was determined using the following equation: […]
(§3) where RLUluc [drug] is the relative light unit of luciferase activity in infected cells in the presence of drug and RLUluc is the Relative Light Unit of luciferase activity in infected cells in the absence of drug. IC50 values were obtained from the sigmoidal curves that were generated from the data by plotting the percent inhibition of luciferase activity vs. the log10 drug concentration.

In assay [2] the test system is V108I -RTV (HIV reverse transcriptase V108I).
Text: as §1, §2, §3

The subject of assay [3] is Y181C-A98G-RTV.
Text: as §1, §2, §3

Assay [4] has as its system Y181I-RTV (HIV reverse transcriptase Y181I).
Text: as §1, §2, §3

In assay [5] the test system is G190S-RTV (HIV reverse transcriptase G190S). Briefly: Phenotypic susceptibility assay, G190S-RTV. The assay is classed as cell-based, HIV-1. The conditions noted are these: for change in susceptibility compared to wild type reference RTV: Example 5; for fold change in susceptibility compared to wild type control RTV: values <1 = increased susceptibility.
Text: as §1, §2, §3

Assay [6] relates to RTV-1060 (patient sample 98-1060). Briefly: Phenotypic susceptibility assay, RTV-1060. The assay is classed as cell-based, HIV-1. The conditions noted are these: RTV-1060, patient-derived pool. The method, then: (§4) Transfections were performed using a calcium-phosphate precipitation procedure. […] Cell lysates were assayed for luciferase activity (FIG. 3).
(§5) The drug inhibition curves are shown in (FIG. 3).
This patient had been previously treated with d4T […] , indinavir (a PRI and efavirenz (an NNRTI). A second resistance test vector was constructed as described in Example 1 from a patient sample designated 98-1060. This patient had been previously treated with d4T […]. indinavir (a PRI) and efavirnez (an NNRTI). Isolation of viral RNA and RT/PCR was used to generate a patient derived segment that comprised viral sequences coding for all of PR and aa 1-313 of RT. The PDS was inserted into an indicator gene viral vector to generate resistance test vectors designated RTV-644 and RTV-1060. RTV-644 and RTV-1060 were then tested in a phenotypic assay to determine accurately and quantitatively the level of susceptibility to a panel of anti-retroviral drugs. […] An IC50 was determined for the resistance test vector pool for each drug tested. The pattern of susceptiblity to all of the drugs tested was examined and compared to known patterns of susceptibility.

The subject of assay [7] is K101E-G190S-RTV. The assay is described as follows: Phenotypic susceptibility assay, K101E-G190S-RTV. The format is cell-based, HIV-1.
Text: as §1, §2, §3
The K101E and G190S mutations were introduced alone and in combination into resistance test vectors using the mega-primer method for site-directed mutagenesis (Sakar and Sommar, Ibid.). Resistance test vectors containing the K101E mutation (K101E-RTV), the G190S mutation (G190S-RTV) were then tested using the phenotypic assay described earlier and the results were compared to those determined using a genetically defined resistance test vector that was wild type at positions 101 and 190.

Assay [8] concerns RTV-1033 (patient sample 98-1033). Briefly: Phenotypic susceptibility assay, RTV-1033. The assay is classed as cell-based, HIV-1. The conditions noted are these: RTV-1033, patient-derived pool. The method, then:
as §4, §5
A resistance test vector was constructed as described in Example 1 from a patient sample designated 98-1033. […] Isolation of viral RNA and RT/PCR was used to generate a patient derived segment that comprised viral sequences coding for all of PR and aa 1-313 of RT. The PDS was inserted into an indicator gene viral vector to generate resistance test vectors designated RTV-1033 and RTV-757. RTV-1033 and RTV-757 were then tested in a phenotypic assay to determine accurately and quantitatively the level of susceptibility to a panel of anti-retroviral drugs. […] An IC50 was determined for the resistance test vector pool for each drug tested. The pattern of susceptibility to all of the drugs tested was examined and compared to known patterns of susceptibility.

The test system of assay [9] is V106A-Y181C-F227L-RTV. The assay is described as follows: Phenotypic susceptibility assay, V106A-Y181C-F227L-RTV. The assay is classed as cell-based, HIV-1. The conditions noted are these: site directed mutant.
Text: as §1
as §2, with “Md.).” for “Md.). Before infection, target cells (293 and 293/T) were plated in cell culture media. Control infections were performed using cell culture media from mock transfections (no DNA) or transfections containing the resistance test vector plasmid DNA without the envelope expression plasmid. One to three or more days after infection the media was removed and cell lysis buffer (Promega) was added to each well.”

Assay [10] concerns T66I integrase site-directed mutant resistance test vector. The assay is described as follows: Phenotypic susceptibility assay, T66I integrase mutant vector. The format is cell-based, HIV. The conditions noted are these: {}. On the procedure: as §4, §5
A resistance test vector containing the threonine to isoleucine mutation at position 66 of the integrase protein (T66I) was constructed and tested using the phenotypic assay described earlier.

The mark [11] stands for this setting: values <1 = increased susceptibility.

Where two headings read alike, the source gives them in different places.

The results in this text go back to patent US20020094522A1, “Means and methods for monitoring non-nucleoside reverse transcriptase inhibitor antiretroviral therapy and guiding therapeutic decisions in the treatment of HIV/AIDS” (priority 2000, published 2002).

Consider `CC(C)Nc1cccnc1N1CCN(C(=O)c2cc3cc(NS(C)(=O)=O)ccc3[nH]2)CC1` [delavirdine], for which the “fold loss of susceptibility compared to wild type control RTV” value (from here on “fold loss of susceptibility”) in [1] is 3 fold; in [3], 240 fold; in assay [4] it was 20 fold; in [9], 50 fold. The “fold change in susceptibility compared to wild type control RTV” value (“fold change in susceptibility” below) in assay [2] stood at 1.3 fold; in assay [5] it was 0.5 fold; in [7], 1.4 fold; in [7] (setting [11]) it was 0.5 fold. Besides, in assay [5], the “change in susceptibility compared to wild type reference RTV” value is on record as “slightly more susceptible to delavirdine”. In addition, the “fold decrease in susceptibility (IC50)” value in assay [6] stood at 1.5 fold; in [8] it was 30 fold. For the same molecule, in assay [10], the “increase in susceptibility compared to wild type control RTV” value (“increase in susceptibility” for short) is listed as 8-10 fold.
Consider `O=C1Nc2ccc(Cl)cc2[C@@](C#CC2CC2)(C(F)(F)F)O1` [efavirenz], for which the “fold loss of susceptibility” value in [1] turned out to be 3 fold; in [3], 7 fold; in assay [4] it was 1.4 fold; in [9], 12 fold. Further, the “fold change in susceptibility” value in assay [2] is listed as 1.7 fold; in assay [5], 8 fold; in [7], “greater than 250 fold”; in assay [7] (setting [11]) it was 7.6 fold. The “fold decrease in susceptibility (IC50)” value in assay [6] was 900 fold; in assay [8], 200 fold. In addition, the “increase in susceptibility” value in assay [10] is 8-10 fold.
Consider `Cc1ccnc2c1NC(=O)c1cccnc1N2C1CC1` [nevirapine], for which the “fold loss of susceptibility” value in assay [1] is on record as 8 fold; in assay [3] it was “greater than 800 fold”; in assay [4], 740 fold; in [9], “greater than 800 fold”. The “fold change in susceptibility” value in assay [2] was 3 fold; in [5], 75 fold; in assay [7], “greater than 800 fold”; in assay [7] (setting [11]) it was 75 fold. Further, the “change in susceptibility compared to wild type reference RTV” value in assay [5] is listed as “markedly less susceptible to nevirapine”. In addition, the “fold decrease in susceptibility (IC50)” value in assay [6] and in assay [8] was “greater than 800 fold” in each case. Further, in assay [10], the “increase in susceptibility” value is recorded as 8-10 fold.
